{"source": "patent US7901707B2", "about": "“Biodegradable biocompatible implant and method of manufacturing same” (priority 2005, dated 2011)", "key": {"[1]": {"test_system": "ovarian cancer cells", "experiment": "MTT assay, combination of PTX and CPT", "type": "cell-based", "details": "48 hour", "description": "(§1) Briefly, cells were diluted with culture medium to the seeding density (10^5 cells/mL) and suspended in 96-well tissue culture plates (100 μL/well), and preincubated at 37° C. overnight. Cells were then treated continuously with 10 μL of various concentrations of the anticancer agents to obtain a dose-response curve for each agent. For combination assays, cells were also treated continuously with a total of with 10 μL of various concentrations of PTX and CPT. Each drug concentration was as follows: 6.25-200 ng/mL PTX and 1-50 μg/mL CPT.\n(§2) After incubation of 24, 48 and 72 h, 10 μL of MTT solution (5 mg/mL of PBS, filtered) was added to each well and the plates were further incubated for 4 h. 100 μL of extraction buffer (20% w/v SDS dissolved at 37° C. in a solution of 50% Dimethylformamide/50% H2O, 2.5% of 80% Acetic acid 2.5% of 1N HCl (ph 4.7)) was added to solubilize the MTT-formazan product. Absorbance at 570 nm was measured with a microplate reader (SPECTRAmax® PLUS384, Molecular Devices, Sunnyvale Calif.—U.S.A.). Dose response curves were plotted as a percentage of the control cell number, which was obtained from the no-drug exposure sample."}, "[2]": {"test_system": "SKOV-3 cells", "experiment": "In-vitro cytotoxicity of implant, implant containing PTX and free PTX (MTT)", "type": "cell-based, human", "description": "In-vitro cytoxicity of the implant, implant containing PTX and free PTX. The SKOV-3 cells were plated in 6-well plates and cultured in RPMI 1640 supplemented with 1% penicillin/streptomycin solution and 10% fetal bovine serum. The cell line was grown at 37° C. in a humidified incubator equilibrated with 5% CO2. Medium was replaced three times a week and cells were typsinised and subcultured every five days. […] Likewise, PoLi implants of varying sizes were added to the wells. The implants were swelled in 70% ethanol for sterilization purposes prior to incubation with cells. Following a 48 hour incubation period the cell viability was measured using the MTT assay. The MTT dye was added to each well following the specific time period and incubated for 2 hours at 37° C. Cells were then solubilized in 10% SDS. Formazan dye concentrations were then detected using a microplate reader (BioRad) at […] wavelength of 570 nm."}, "[3]": {"test_system": "SKOV3 cells", "experiment": "Cell proliferation assay (MTT), sustained exposure", "type": "cell-based, human", "description": "as §1\nas §2, with “sample. A semilog scale was used when necessary: IC50 of CPT for SKOV3 and CAOV3.” for “sample.”"}}, "data": [{"smiles": "N.N.O=C([O-])C1(C(=O)[O-])CCC1.[Pt+2]", "note": "[CPT, carboplatin]", "values": [{"measurement": "CPT IC50", "setting": "[1]; CPT alone", "result": 35, "unit": "µg/mL"}]}, {"smiles": "CC(=O)O[C@H]1C(=O)[C@@]2(C)[C@H]([C@H](OC(=O)c3ccccc3)[C@]3(O)C[C@H](OC(=O)[C@H](O)[C@@H](NC(=O)c4ccccc4)c4ccccc4)C(C)=C1C3(C)C)[C@]1(OC(C)=O)CO[C@@H]1C[C@@H]2O", "note": "[PTX, paclitaxel]", "values": [{"measurement": "IC50", "setting": "[1]; PTX alone", "result": "> 0.2", "unit": "µg/mL"}, {"measurement": "reduction in cells", "setting": "[2]; 0.050 μg of free PTX, 48 hours", "result": 64, "unit": "%"}, {"measurement": "cell reduction", "setting": "[2]; 0.2 μg of free PTX, 48 hours", "result": 73, "unit": "%"}, {"measurement": "IC50", "setting": "[2]; Homo sapiens, SK-OV-3, 48 hours of incubation", "result": 0.0347, "unit": "µg/mL"}, {"measurement": "decrease in IC50, 24 versus 72 hour time point", "setting": "[3]", "result": 10, "unit": "fold"}]}]}
